In US20180327367A1, “MACROCYCLIC BROAD SPECTRUM ANTIBIOTICS” (priority 2015, published 2018):
Converted amounts (≈) assume the structure as drawn. Like-named read-outs stand apart in the source and are kept apart here.

Legend:
Type in all cases: cell-based
[1] = test system: Methicillin Resistant Staphylococcus aureus strain USA 300, NRS384; experiment: Minimum inhibitory concentration, broth micro-dilution (CLSI), S. aureus; settings: 35° C., 22 hours; for MIC: Staphylococcus aureus, MRSA / NRS 384 / USA300, 22 h
Outline: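 Colonies grown 20 hours at 35° C were suspended in cation-adjusted Mueller Hinton Broth with 0.002% Tween-80. Cells were then added to 2-fold compound dilutions starting at 4 or 0.5 μg/mL, at OD600 0.0005.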

[2] = test system: Escherichia coli MC4100 harboring the IMP4213 (E. coli IMP); experiment: microbe, parasite or virus in culture; settings: 35° C., 22 hours; for MIC: Escherichia coli, 22 h, read-out: MIC (μg/mL) E. coli IMP, E. coli MC4100 IMP4213, increased outer-membrane permeability
Outline: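 Broth micro-dilution per CLSI in cation-adjusted Mueller Hinton Broth with 0.002% Tween-80; E. coli MC4100 carries IMP4213, raising outer-membrane permeability. Compounds tested as 2-fold serial dilutions (10 concentrations) from 4 μg/mL (protocol 2) or 0.5 μg/mL (protocol 3); inoculum OD600 0.0005, 35° C for 22 hours.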

[3] = test system: Escherichia coli ATCC 25922; experiment: Minimum inhibitory concentration, broth micro-dilution (CLSI), E. coli; settings: 35° C., 22 hours; for MIC: Escherichia coli, ATCC25922, 22 h
[4] = MRSA USA 300 NRS384, read-out: MIC (μg/mL) S. aureus
[5] = E. coli ATCC 25922, read-out: MIC (μg/mL) E. coli

SMILES: CCCCCCc1ccc(-c2ncc(C(=O)N[C@@H](CCN)C(=O)N(C)[C@@H]3C(=O)N[C@@H](C)C(=O)N[C@H](C(=O)NCC#N)Cc4ccc(OCCN)c(c4)-c4cc3ccc4OCCN)n2C)cc1 [Compound 507]
- MIC [1, 4]: 0.031 µg/mL (≈ 0.0342 µM)
- MIC [2]: 0.016 µg/mL (≈ 0.0177 µM)
- MIC [3, 5]: 0.75 µg/mL (≈ 0.828 µM)

SMILES: CCCCCCCCNC(=O)N[C@@H](CCN)C(=O)N(C)[C@@H]1C(=O)N[C@@H](C)C(=O)N[C@H](C(=O)NCC#N)Cc2ccc(OCCN)c(c2)-c2cc1ccc2OCCN [Compound 402]
- MIC [1, 4]: 0.38 µg/mL (≈ 0.479 µM)
- MIC [2]: 0.19 µg/mL (≈ 0.24 µM)
- MIC [3, 5]: 32 µg/mL (≈ 40.4 µM)

SMILES: CCCCc1ccc(-c2ncc(C(=O)N[C@@H](CCCN)C(=O)N(C)[C@@H]3C(=O)N[C@@H](C)C(=O)N[C@H](C(=O)NCC#N)Cc4ccc(OCCN)c(c4)-c4cc3ccc4OCCN)c(C)n2)cc1 [Compound 154]
- MIC [1, 4]: 0.012 µg/mL (≈ 0.0133 µM)
- MIC [2]: 0.0059 µg/mL (≈ 0.00653 µM)
- MIC [3, 5]: 0.25 µg/mL (≈ 0.277 µM)

SMILES: CCCCc1ccc(-c2ncc(C(=O)N[C@@H](CCN)C(=O)N(C)[C@@H]3C(=O)N[C@@H](C)C(=O)N[C@H](C(=O)NCC#N)Cc4ccc(O)c(c4)-c4cc3ccc4OCCN)c(C)n2)cc1 [Compound 503]
- MIC [1, 4]: 0.031 µg/mL (≈ 0.0366 µM)
- MIC [2]: 0.002 µg/mL (≈ 0.00236 µM)
- MIC [3, 5]: 0.13 µg/mL (≈ 0.153 µM)

SMILES: Cc1cc(OCC2C[C@H]3CC[C@@H]2C3)ccc1C(=O)N[C@@H](CCN)C(=O)N(C)[C@@H]1C(=O)N[C@@H](C)C(=O)N[C@H](C(=O)NCC#N)Cc2ccc(OCCN)c(c2)-c2cc1ccc2OCCN (stereo partly drawn) [Compound 287]
- MIC [1, 4]: 0.094 µg/mL (≈ 0.107 µM)
- MIC [2]: 0.0078 µg/mL (≈ 0.00886 µM)
- MIC [3, 5]: 0.38 µg/mL (≈ 0.432 µM)

SMILES: Cc1c(C(=O)N[C@@H](CCN)C(=O)N(C)[C@@H]2C(=O)N[C@@H](C)C(=O)N[C@H](C(=O)NCC#N)Cc3ccc(OCCN)c(c3)-c3cc2ccc3OCCN)cnn1-c1ccc(CC(C)C)cc1 [Compound 444]
- MIC [1, 4]: 0.094 µg/mL (≈ 0.107 µM)
- MIC [2]: 0.031 µg/mL (≈ 0.0353 µM)
- MIC [3, 5]: 3 µg/mL (≈ 3.42 µM)

SMILES: CCCCCCCc1ccc(C(=O)N[C@@H](CCN)C(=O)N(C)[C@@H]2C(=O)N[C@@H](C)C(=O)N[C@H](C(=O)NCC#N)Cc3ccc(OCCN)c(c3)-c3cc2ccc3O)c(C)c1 [Compound 315]
- MIC [1, 4]: 0.078 µg/mL (≈ 0.0962 µM)
- MIC [2]: 0.014 µg/mL (≈ 0.0173 µM)
- MIC [3, 5]: 0.38 µg/mL (≈ 0.469 µM)

SMILES: CCCCCCc1ccc(C(=O)N[C@@H](CCN)C(=O)N(C)[C@@H]2C(=O)N[C@@H](C)C(=O)N[C@H](C(=O)NCC#N)Cc3ccc(OCCN)c(c3)-c3cc2ccc3OCCN)c(OCCN)c1 [Compound 519]
- MIC [1, 4]: 0.13 µg/mL (≈ 0.147 µM)
- MIC [2]: 0.25 µg/mL (≈ 0.282 µM)
- MIC [3, 5]: 16 µg/mL (≈ 18.1 µM)

SMILES: CCCCCCCCc1ccc2c(c1)CN([C@@H](CCN)C(=O)N(C)[C@@H]1C(=O)N[C@@H](C)C(=O)N[C@H](C(=O)NCC#N)Cc3ccc(OCCN)c(c3)-c3cc1ccc3OCCN)C2=O [Compound 488]
- MIC ([1]; read-out: MIC (μg/mL) S. aureus, MRSA USA 300 NRS384): 0.094 µg/mL (≈ 0.109 µM)
- MIC [2]: 0.13 µg/mL (≈ 0.15 µM)
- MIC ([3]; read-out: MIC (μg/mL) E. coli, E. coli ATCC 25922): 4 µg/mL (≈ 4.62 µM)

SMILES: CCCCCCCCCCNCC(CO)C(=O)N(C)[C@@H]1C(=O)N[C@@H](C)C(=O)N[C@H](C(=O)NCC#N)Cc2ccc(OCCN)c(c2)-c2cc1ccc2OCCN (stereo partly drawn) [Compound 525]
- MIC [1, 4]: 1.5 µg/mL (≈ 1.93 µM)
- MIC [2]: > 4 µg/mL
- MIC [3, 5]: > 64 µg/mL

SMILES: CCCCCCc1ccc(C(=O)N2CCC(N)C[C@H]2C(=O)N(C)[C@@H]2C(=O)N[C@@H](C)C(=O)N[C@H](C(=O)NCC#N)Cc3ccc(OCCN)c(c3)-c3cc2ccc3OCCN)c(C)c1 (single isomer, unassigned) [Compound 526-2]
- MIC (μg/mL) S. aureus ([1]; MRSA USA 300 NRS384): >0.5 µg/mL
- MIC (μg/mL) E. coli IMP ([2]; E. coli MC4100 IMP4213, increased outer-membrane permeability): >0.13 µg/mL
- MIC (μg/mL) E. coli ([3]; E. coli ATCC 25922): 64 µg/mL (≈ 73.9 µM)

SMILES: CCCCCCCc1ccc(C(=O)N[C@@H](CCN)C(=O)N(C)[C@@H]2C(=O)N[C@@H](C)C(=O)N[C@H](C(=O)NCC#N)Cc3ccc(OCCNC(=O)CN)c(c3)-c3cc2ccc3OCCNC(=O)CN)c(C)c1 [Compound 499]
- MIC [1, 4]: 0.063 µg/mL (≈ 0.0651 µM)
- MIC [2]: 0.023 µg/mL (≈ 0.0238 µM)
- MIC [3, 5]: 0.5 µg/mL (≈ 0.516 µM)

SMILES: CCCCc1ccc(C)c(C(=O)N[C@@H](CCCN)C(=O)N(C)[C@@H]2C(=O)N[C@@H](C)C(=O)N[C@H](C(=O)NCC#N)Cc3ccc(OCCN)c(c3)-c3cc2ccc3OCCN)c1 [Compound 207]
- MIC [1, 4]: 1.5 µg/mL (≈ 1.82 µM)
- MIC [2]: 0.063 µg/mL (≈ 0.0763 µM)
- MIC [3, 5]: 16 µg/mL (≈ 19.4 µM)

SMILES: CCCCCCCCc1ccc(C(=O)N[C@@H](CCC(=O)NC)C(=O)N(C)[C@@H]2C(=O)N[C@@H](C)C(=O)N[C@H](C(=O)NCC#N)Cc3ccc(OCCN)c(c3)-c3cc2ccc3OCCN)c(C)c1 [Compound 501]
- MIC [1, 4]: 0.38 µg/mL (≈ 0.418 µM)
- MIC [2]: > 0.13 µg/mL
- MIC [3, 5]: 16 µg/mL (≈ 17.6 µM)

SMILES: Cc1ccc(C(=O)N[C@@H](CCN)C(=O)N(C)[C@@H]2C(=O)N[C@@H](C)C(=O)N[C@H](C(=O)NCC#N)Cc3ccc(OCCN)c(c3)-c3cc2ccc3OCCN)c(C)c1 [Compound 128]
- MIC [1, 4]: 4 µg/mL (≈ 5.2 µM)
- MIC [2]: 0.5 µg/mL (≈ 0.649 µM)
- MIC [3, 5]: 16 µg/mL (≈ 20.8 µM)

SMILES: CCCCCCc1ccc(C(=O)N[C@@H](CCN)C(=O)N(C)[C@@H]2C(=O)N[C@@H](C)C(=O)N[C@H](C(=O)NCC#N)Cc3ccc(O)c(c3)-c3cc2ccc3O)c(C)c1 [Compound 466]
- MIC [1, 4]: 0.25 µg/mL (≈ 0.332 µM)
- MIC [2]: 0.063 µg/mL (≈ 0.0836 µM)
- MIC [3, 5]: 64 µg/mL (≈ 84.9 µM)
